Test results taken from US20260224714A1, “CYCLING LYSOSOMAL TARGETING ANTIBODY CONJUGATES” (Lycia Therapeutics, Inc., priority 2023, published 2026).

Assays:
Type in all cases: cell-based
[1] = system: Alexa Fluor647 labelled human IgE; assay: Uptake assay: internalization of Alexa Fluor 647 labelled IgE in wild type HepG2 cells (Example 6); details: equimolar conjugate and AF647 IgE, 2 hours, median cellular AF647 intensity by flow cytometry, normalized to unconjugated parent protein
Protocol: (§1) The following experiments were performed with HepG2 hepatocellular carcinoma cells, grown in Eagle's Minimal Essential Media (EMEM) supplemented with 10% FBS and penicillin/streptomycin.
(§2) HepG2 cells (25,000) were plated in 96-well plates 48 hours before the experiment was performed. On the day of the experiment, indicated the conjugate was mixed with an equimolar stock of Alexa Fluor647 labelled human IgE (Enzo Life Sciences, BPD-DIA-HE 1) in fresh EMEM as a 600 nM stock. The precomplexed conjugate:IgE mixture was incubated at room temperature for 30 minutes. During the precomplexing step, media from HepG2 was removed, and 40 ul of EMEM with 1/100 Fc Receptor Blocking Solution (Biolegend Human TruStain FcX, 422302) was added. Cells incubated in the receptor blocking solution for 10 minutes while making serial dilutions (1:3) of conjugate:IgE stock solution in EMEM. 40 ul of the conjugate:IgE mixture in EMEM was then added to cells (six dilutions, with final concentrations ranging from 300 nM to 1.23 nM) for 2 hours before washing with DPBS and detaching with 0.25% Trypsin/EDTA. Cells were pelleted in 96-well conical bottom plates, washed once with FACS Buffer with BSA (Rockland Immunochemicals), and resuspended in FACS Buffer with BSA. Uptake of fluorescently labelled IgE was measured by analyzing median cellular AF647 intensity by flow cytometry.
(§3) Cells were incubated with equimolar ratio of conjugate and AF647 IgE at indicated concentrations, with data normalized to unconjugated parent protein (Oma S35HWY57H-LC).

[2] = system: Alexa Fluor647 labelled human IgE; assay: Uptake assay: internalization of Alexa Fluor 647 labelled IgE in ASGPR1/2 KO HepG2 cells (Example 6); details: equimolar conjugate and AF647 IgE, normalized to unconjugated parent protein
Protocol: as §1, §2, §3

[3] = system: LysoLight-labelled human IgE; assay: Lysosomal degradation of LysoLight-labelled IgE in HepG2 cells, live cell imaging (Example 7); details: equimolar conjugate:LysoLight IgE, area under the curve of deep red fluorescence over three days, normalized to unconjugated parent protein
Protocol: as §1
HepG2 cells (15,000) were plated in 96-well plates 72 hours before performing the experiment. On the day of the experiment, indicated the conjugate was diluted in fresh EMEM and mixed with an equimolar stock of LysoLight-labelled human IgE (Enzo Life Sciences, BPD-DIA-HE1), at 200 nM of each compound. The precomplexed conjugate:IgE mixture was incubated at room temperature for 30 minutes. During the precomplexing step, media from HepG2 was removed, and 40 ul of EMEM with 1/100 Fc Receptor Blocking Solution (Biolegend Human TruStain FcX, 422302) was added. Cells incubated in the receptor blocking solution for 10 minutes while making serial dilutions (1:3) of conjugate:IgE stock solution in EMEM. 40 ul of the conjugate:IgE mixture in EMEM was then added to cells (five dilutions, with final concentrations ranging from 100 nM to 1.23 nM). Cells were placed in an IncuCyte Live-Cell Analysis System (Sartorius) for long term live cell imaging analysis (10× magnification, 3 images per well). One hour after addition of compound, image acquisition to measure red fluorescence from the LysoLight probe was started, with further Images collected every hour for 72 hours. Fluorescence of the LysoLight probe only occurs when cleaved by lysosomal cathepsin proteases, confirming lysosomal delivery and degradation of target. After 72 hours, mean red fluorescence was measured for each time point, and the area under the curve of fluorescence overtime was used to measure total degradation over the 3-day time period.

[4] = system: HepG2 cells; assay: Externalization of conjugates from a cell following internalization (cycling), high-throughput format (Example 11); details: 50 nM conjugate 1 hour, stringent washes, Alexa Fluor 647-labelled a-human IgG 1 hour, FACS, normalized to unconjugated parent protein, average of two replicate wells
Protocol: as §1
The method was also adapted to a high-throughput format. In this assay, 25,000 HepG2 cells were plated in 96-well plates 48 hours before performing the experiment. The day of the experiment, cells were incubated with conjugate at indicated concentrations for 1 hour. Cells were then placed on ice to prevent trafficking/recycling during wash steps, and washed once with DPBS, once with sodium acetate buffer (20 mM, 150 mM NaCl, pH 5.2), once with Earle's Balanced Salt Solution (EBSS) adjusted to pH 2.5, and once again with DPBS, to remove conjugate from media and cell surface. Afterwards, 100 ul of prewarmed (to 37° C.) EMEM with 1 μg/ml of human a-IgG antibody conjugated to Alexa Fluor647 fluorophores was added to cells for 1 hour before washing with DPBS and detaching with 0.25% Trypsin/EDTA. Cells were pelleted in 96-well conical bottom plates, washed once with FACS Buffer with BSA (Rockland Immunochemicals), resuspended FACS Buffer with BSA and median AF647 intensity was analyzed by flow cytometry. The amount of conjugate capable of cycling to the cell surface (being externalized from the cell) and binding to the Alexa Fluor647 labelled α-IgG was measured by analyzing median cellular 647 fluorescence intensity by flow cytometry. […]. Reported values are the average of the values of two replicate wells.

[5] = system: human IgE; assay: Degradation of initial and subsequent dose of target in HepG2 cells (Example 12, Table 30); details: normalized to unconjugated; for Normalized Fluorescence Post Wash Median Green: after wash, probe-conjugated IgE added for 4 hours, subsequent dose of target; for Normalized Fluorescence Precomplex Median Deep Red: precomplexed equimolar conjugate:IgE (cathepsin-cleavable quenched fluorescent probe) added for 2 hours, initial dose of target
Protocol: as §1
HepG2 cells (25,000) were plated in 96-well plates 48 hours before performing the experiment. On the day of the experiment, indicated conjugate was diluted in fresh EMEM as a 2× stock, and mixed with an equimolar stock of human IgE (Enzo Life Sciences, BPD-DIA-HE 1) conjugated to a cathepsin-cleavable quenched fluorescent probe. The precomplexed conjugate:IgE mixture was incubated at 37 degrees Celsius for 30 minutes. Media from HepG2 was removed, and conjugate:IgE mixture in EMEM was added to cells for 2 hours. Cells were then placed on ice to prevent trafficking/recycling during wash steps, and washed once with DPBS, once with sodium acetate buffer (20 mM, 150 mM NaCl, pH 5.2), once with Earle's Balanced Salt Solution (EBSS) adjusted to pH 2.5, and once again with DPBS, to remove conjugate from media and cell surface. Afterwards, 100 ul of prewarmed (to 37 degrees Celsius) EMEM with cathepsin-cleavable quenched fluorescent probe-conjugated IgE was added to cells for 4 hours before washing with DPBS and detaching with 0.25% Trypsin/EDTA. Cells were pelleted in 96-well conical bottom plates, washed once with FACS Buffer with BSA (Rockland Immunochemicals), resuspended FACS Buffer with BSA and median 488 and 647 intensity was analyzed by flow cytometry. Delivery of labelled IgE to the lysosome and subsequent cleavage of initial precomplexed IgE was measured by analyzing median cellular 647 intensity, while cleavage of the post wash addition of IgE, which should only be degraded by recycling conjugates which released the first round of precomplexed IgE, was analyzed by median cellular 488 intensity. HepG2 cells were treated with human IgE (Enzo Life Sciences, BPD-DIA-HE1) conjugated to a cathepsin-cleavable quenched deep red (647) fluorescent probe precomplexed to conjugate fortwo hours, then washed, and fresh media with IgE conjugated to a green (488) cathepsin-cleavable fluorescent probe was then added without conjugate. […] Fluorescence values were measured by FACS and normalized to unconjugated parent protein. Reported values are the average of the values of two replicate wells.

[6] = system: recombinant IgE; assay: Degradation of super-stoichiometric levels of target in HepG2 cells (Example 13, Table 31); details: 1 nM conjugate and 25 nM IgE for three days, (A-B)/C IgE depleted relative to conjugate, average of two replicate wells
Protocol: as §1
For evaluation of compounds in a high throughput format, 25,000 HepG2 cells were plated in a 96-well plate. The following day, 50 ul of 1 nM conjugate and 25 nM recombinant IgE in EMEM were added to the cells. 50 ul of the initial stock of conjugate:IgE was saved to quantify for an initial time point. Three days later, the media was collected from cells, and both initial and 72 hour time points were quantified for IgE concentration using the MSD assay.
HepG2 cells were incubated in media containing 1 nM conjugate and 25 nM IgE for three days. Concentrations of IgE at beginning and end of experiment were quantified by ELISA-based assay. Molar equivalents of IgE depleted relative to conjugate added are shown, calculated as (A-B)/C, where A is the initial concentration of IgE, B is the concentration of IgE at day three, and C is the concentration of conjugate. Reported values are the average of the values of two replicate wells.

| SMILES | Normalized Fluorescence 3.7 nM WT [1] | Normalized Fluorescence 100 nM WT [1] | Normalized Fluorescence 100 nM ASGPR KO [2] | Normalized Fluorescence 3.7 nM [3] | Normalized Fluorescence 100 nM [3] | Normalized Fluorescence [4] | Normalized Fluorescence Post Wash Median Green [5] | Normalized Fluorescence Precomplex Median Deep Red [5] | Average Degradation (Molar equivalents) [6] [Molar equivalents] |
| --- | --- | --- | --- | --- | --- | --- | --- | --- | --- |
| O=C(CCOCCOCCOCCNS(=O)(=O)c1ccc(N2C(=O)C=CC2=O)cc1)NC(CCCNC(=O)NCCOCCOCCCc1ccnc(N[C@H]2CO[C@H](CO)[C@H](O)[C@@H]2O)n1)(CCCNC(=O)NCCOCCOCCCc1ccnc(N[C@H]2CO[C@H](CO)[C@H](O)[C@@H]2O)n1)CCCNC(=O)NCCOCCOCCCc1ccnc(N[C@H]2CO[C@H](CO)[C@H](O)[C@@H]2O)n1 [Compound 2311] | 22.6 | 92.9 | 1.1 | 2.2 | 2.2 | 11.6 | 1.7 | 2.0 | 0.5 |
| CC(=O)N[C@@H]1[C@@H](O)[C@@H](O)[C@@H](CO)O[C@@H]1CCCOCCOCCNC(=O)NCCCC(CCCNC(=O)NCCOCCOCCC[C@H]1O[C@H](CO)[C@H](O)[C@H](O)[C@H]1NC(C)=O)(CCCNC(=O)NCCOCCOCCC[C@H]1O[C@H](CO)[C@H](O)[C@H](O)[C@H]1NC(C)=O)NC(=O)NCCOCCOCCOCCNS(=O)(=O)c1ccc(N2C(=O)C=CC2=O)cc1 [Compound 2315] | 77.7 | 275.7 | 1.1 | 15.6 | 4.0 | 48.8 | 3.1 | 3.3 | 4.5 |
| CCC[C@H]1O[C@H](CO)[C@H](O)[C@H](O)[C@H]1Nc1nccc(OCCOCCOCCNC(=O)NCCCC(CCCNC(=O)NCCOCCOCCOc2ccnc(N[C@@H]3[C@@H](O)[C@@H](O)[C@@H](CO)O[C@@H]3CCC)n2)(CCCNC(=O)NCCOCCOCCOc2ccnc(N[C@@H]3[C@@H](O)[C@@H](O)[C@@H](CO)O[C@@H]3CCC)n2)NC(=O)CCOCCOCCOCCNS(=O)(=O)c2ccc(N3C(=O)C=CC3=O)cc2)n1 [Compound 2330] | 54.5 | 166.6 | 1.1 | 8.1 | 2.4 | 42.9 | 2.9 | 3.0 | 2.8 |
| CC(=O)N[C@@H]1[C@@H](O)[C@@H](O)[C@@H](CO)O[C@@H]1CCCOCCOCCNC(=O)NCCCC(CCCNC(=O)NCCOCCOCCC[C@H]1O[C@H](CO)[C@H](O)[C@H](O)[C@H]1NC(C)=O)(CCCNC(=O)NCCOCCOCCC[C@H]1O[C@H](CO)[C@H](O)[C@H](O)[C@H]1NC(C)=O)NC(=O)CBr [Compound 2308] | 55.1 | 261.4 | 1.1 | 6.7 | 2.3 | 31.6 | 2.8 | 3.3 | 2.5 |
| O=C(CCOCCOCCOCCNS(=O)(=O)c1ccc(N2C(=O)C=CC2=O)cc1)NC(CCCNC(=O)NCCOCCOCCOCC(F)(F)c1cncc(N[C@H]2CO[C@H](CO)[C@H](O)[C@@H]2O)n1)(CCCNC(=O)NCCOCCOCCOCC(F)(F)c1cncc(N[C@H]2CO[C@H](CO)[C@H](O)[C@@H]2O)n1)CCCNC(=O)NCCOCCOCCOCC(F)(F)c1cncc(N[C@H]2CO[C@H](CO)[C@H](O)[C@@H]2O)n1 [Compound 2327] | 133.1 | 268.8 | 1.0 | 24.0 | 2.7 | 71.2 | 4.6 | 3.7 | 9.2 |
